Measurements reported in patent US7425548B2, “Materials and methods for immune system stimulation” (Variety Chidren's Hospital, priority 2004, dated 2008).

Assays:
[1] = tested on: C3a des Arg (alternative pathway); experiment: Complement activation pathway EIA in normal blood; design: species or system human; settings: RR1 0-100 μg/ml, 24 hours
Experimental: Normal blood samples from healthy volunteers were incubated with RR1 (0-100 μg) for 24 hours. Human complement C3a des Arg and C4a des Arg correlate EIA Kits (Assay Design Inc., Ann Arbor, Mich.) were used for quantification of classic and alternative pathway of complement activation using an ELISA procedure. ***p<0.001.
Complement activation pathway. Human complement C3a des Arg and C4a des Arg correlate-EIA Kits (ASSAY DESIGN Inc., Ann Arbor, Mich.) were used to measure the cleaved complement components (C3a des Arg and C4a des Arg) according to the manufacturer's protocols. In brief, 1 ml normal blood, drawn from healthy volunteer was incubated with 0-100 μg/ml of RR1 in a CO2 incubator at 37° C. for 24 hours. The treated blood samples were centrifuged at 2000×g at 4° C. and 225 μl of complement reagent ‘A’ was added to an equal volume of the sample supernatant and vortexed thoroughly. To this mixture, 50 μl of 10 N HCl was added, vortexed again and incubated at room temperature for 1 hour. […] The plate was incubated at 37° C. for 1 hour without shaking, added 50 μl of stop solution and absorbance was taken at 405 nm with a reference wavelength of 570 nm in a BIO-RAD Bench top plate reader.

[2] = tested on: RAW264.7 macrophages; experiment: Opsonized binding and phagocytosis of FITC-zymosan A bioparticles; assay type: cell-based, mouse; settings: 500 μg/ml, 37° C., 1 hour
Experimental: Monocytes were incubated with RR1 at 37° C. for 1 hour followed by FITC-labeled zymosan A bioparticles for another 1 hour at 37° C. The cells were washed and intracellular fluorescence measured in a Coulter Elite Flow cytometer.
Opsonized binding and Phagocytosis. To determine the effect of RR1 and laminarin on opsonized binding and phagocytosis of zymosan A particles, RAW 264.7 cells were treated with RR1 or laminarin (0 and 500 μg/ml) in DMEM at 37° C. for 1 hour. This will ensure the release of opsonins and facilitate opsonic binding. The cells were washed with PBS twice and incubated with zymosan A-FITC bioparticles at a ratio of 25 particles/cell at 37° C. for 1 hour. The cells were suspended in PBS after removing the unbound zymosan particles by extensive washing with the medium, and the intracellular fluorescence analyzed in a Coulter Elite flow cytometer. The fluorescence intensity was expressed as percentage of control.

[3] = tested on: HEK293 cells transfected with TLR4/CD14/MD2; experiment: TLR signaling, IL-8 ELISA; assay type: cell-based, human; settings: HEK/TLR4/CD14/MD2, 24 hours
Experimental: (§1) TLR signaling. To determine the involvement of TLR signaling, parental HEK293 as well as HEK293 cells transfected with human TLR2, TLR6, TLR2/6 or TLR4/CD14/MD2 genes (cloned into pDUO plasmid), were used. These cells (0.5×10^6/ml) were incubated with 0-100 μg/ml of RR1 for 24 hours. Since these cells produce very low level of TNF-α and detectable levels of IL-8 upon activation, IL-8 secreted into the medium was analyzed using ELISA procedure. Incidentally, the IL-8 synthesis is also under the control of the transcription factor NF-κB.

[4] = tested on: parental HEK293 cells; experiment: TLR signaling, IL-8 ELISA; assay type: cell-based, human; settings: parental HEK, RR1 0-100 μg/ml, 24 hours
Experimental: as §1

[5] = tested on: HEK293 cells transfected with TLR2; experiment: TLR signaling, IL-8 ELISA; assay type: cell-based, human; settings: HEK/TLR2, 24 hours
Experimental: as §1

[6] = tested on: RAW264.7 macrophages; experiment: Nonopsonized binding of FITC-zymosan A bioparticles; assay type: cell-based, mouse; settings: 1000 μg/ml RR1, 4° C.
Experimental: RR1 inhibits the binding and internalization of nonopsonic binding of zymosan A bioparticles in a dose-dependent manner. The cells were incubated with RR1 for 1 hour on ice (4° C.) in DMEM containing 0.5% FBS followed by zymosan A biparticles for 1 hour on ice. The cells were warmed for 7 minutes at 37° C. for internalization of zymosan A bioparticles and intracellular FITC fluorescence analyzed in a Coulter Elite flow cytometer.
Nonopsonized binding of RR1. To determine the inhibitory effect of RR1 on non-opsonized binding of zymosan A bioparticles, mouse monocyte/macrophage cells (0.5×10^6) were incubated with 0, 100, 500 and 1000 μg/ml of RR1 at 4° C. to prevent the local release of opsonins including complement (Ezekowitz, R. A. et al. J. Clin. Invest., 1985, 76:2368-2376; Brown, G. D. et al. J. Expt. Med., 2002, 196:407-412). After 1 hour incubation on ice, the cells were washed three times with pre-chilled culture medium, added FITC-conjugated zymosan A particles at a ratio of 25 particles/cell and kept on ice for another hour. The cells were washed with PBS twice and incubated in DMEM at 37° C. for 30 minutes in a CO2 incubator. The unbound zymosan particles were removed by extensive washing with medium and the intracellular fluorescence of the zymosan-FITC analyzed in a Coulter Elite flow cytometer.

[7] = biological target: T1, CR3 (CD11b) on RAW 264.7 macrophages (Mus musculus, UniProt P05555); experiment: Blocking of CR3 with CD11b mAb, glucan-induced TNF-α synthesis; assay type: cell-based; settings: anti-CD11b mAb 5 μg/ml, 37° C.
T1 construct: endogenous in cells; host or cells: RAW 264.7 mouse macrophages (ATCC)
Experimental: Effect Blocking of CR3 with CD11b mAb on opsonised binding. To examine whether the glucan specific receptors CR3 is involved in the opsonised recognition/binding of RR1 on macrophages, monoclonal antibodies (mAbs) specific for CR3 (Rat antimouse CD11b from BD BIOSCIENCES, San Jose, Calif.) were used for blocking the CR3. […] TNF-α released by the macrophages into the medium was analyzed by ELISA kit (BD Biosciences, San Jose, Calif.) (Brown, G. D. et al. J. Expt. Med., 2002, 196:407-412; Brown, G. D. et al. J. Exp. Med., 2003, 197:1119-1124).

T1 sequence (P05555 17-1153): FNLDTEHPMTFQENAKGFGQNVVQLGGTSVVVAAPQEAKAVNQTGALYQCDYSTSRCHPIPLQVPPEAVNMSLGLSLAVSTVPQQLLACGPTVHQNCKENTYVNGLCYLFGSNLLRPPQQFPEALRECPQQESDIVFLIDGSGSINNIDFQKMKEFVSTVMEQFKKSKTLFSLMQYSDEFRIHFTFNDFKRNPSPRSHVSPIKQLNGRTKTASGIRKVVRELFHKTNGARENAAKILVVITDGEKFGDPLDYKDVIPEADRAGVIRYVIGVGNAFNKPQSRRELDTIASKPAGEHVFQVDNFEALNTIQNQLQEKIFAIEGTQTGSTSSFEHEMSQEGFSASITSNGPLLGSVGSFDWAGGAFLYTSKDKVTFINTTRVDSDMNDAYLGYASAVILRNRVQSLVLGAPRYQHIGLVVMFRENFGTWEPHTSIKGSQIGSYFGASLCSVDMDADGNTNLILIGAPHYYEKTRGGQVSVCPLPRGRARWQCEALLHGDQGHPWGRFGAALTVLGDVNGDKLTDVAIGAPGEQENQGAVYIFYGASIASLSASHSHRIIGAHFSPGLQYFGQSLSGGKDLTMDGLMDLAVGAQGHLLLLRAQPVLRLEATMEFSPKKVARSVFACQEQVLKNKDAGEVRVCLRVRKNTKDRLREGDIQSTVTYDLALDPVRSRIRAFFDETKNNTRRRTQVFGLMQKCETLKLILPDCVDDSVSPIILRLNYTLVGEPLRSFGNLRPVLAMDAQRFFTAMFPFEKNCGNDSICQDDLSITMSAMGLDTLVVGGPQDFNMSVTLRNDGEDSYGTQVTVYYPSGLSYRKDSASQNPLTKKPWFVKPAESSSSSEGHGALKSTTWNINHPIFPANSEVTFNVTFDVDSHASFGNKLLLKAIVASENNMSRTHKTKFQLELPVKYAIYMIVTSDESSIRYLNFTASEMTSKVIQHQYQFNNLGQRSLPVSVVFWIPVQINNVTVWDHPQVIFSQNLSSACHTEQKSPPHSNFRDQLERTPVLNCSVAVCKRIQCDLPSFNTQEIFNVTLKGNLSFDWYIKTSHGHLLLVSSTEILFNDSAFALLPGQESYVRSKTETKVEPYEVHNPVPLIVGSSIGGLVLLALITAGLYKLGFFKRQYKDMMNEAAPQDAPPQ
T1 sequence (P11835 24-771 partner): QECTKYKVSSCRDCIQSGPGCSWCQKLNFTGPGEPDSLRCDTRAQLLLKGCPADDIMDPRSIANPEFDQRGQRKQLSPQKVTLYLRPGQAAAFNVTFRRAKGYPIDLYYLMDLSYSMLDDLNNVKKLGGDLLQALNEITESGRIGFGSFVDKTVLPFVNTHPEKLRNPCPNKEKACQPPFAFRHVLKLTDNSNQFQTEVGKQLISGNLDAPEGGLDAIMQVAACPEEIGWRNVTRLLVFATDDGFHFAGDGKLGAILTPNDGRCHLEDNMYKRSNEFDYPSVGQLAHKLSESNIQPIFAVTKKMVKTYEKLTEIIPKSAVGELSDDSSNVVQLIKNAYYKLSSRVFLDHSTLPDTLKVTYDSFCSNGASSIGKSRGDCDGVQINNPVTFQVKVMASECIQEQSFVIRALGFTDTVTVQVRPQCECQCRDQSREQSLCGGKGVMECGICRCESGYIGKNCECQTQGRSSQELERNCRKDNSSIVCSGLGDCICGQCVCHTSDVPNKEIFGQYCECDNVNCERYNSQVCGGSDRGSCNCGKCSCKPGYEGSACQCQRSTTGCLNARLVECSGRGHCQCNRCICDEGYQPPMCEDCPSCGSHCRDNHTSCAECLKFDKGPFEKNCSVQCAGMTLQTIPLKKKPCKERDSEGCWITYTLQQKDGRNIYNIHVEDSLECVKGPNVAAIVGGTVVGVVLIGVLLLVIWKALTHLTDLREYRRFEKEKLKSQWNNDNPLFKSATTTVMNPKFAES

(1,4)-α-D-glucan [RR1] was tested, and the “levels of C3a des Arg of the alternative pathway” value [1] was “step-wise increase”, the “inhibitory effect on opsonized binding and phagocytosis of zymosan A bioparticles” value [2] was “failed to show any significant effect” and the “inhibitory effect on opsonized binding and phagocytosis of zymosan A bioparticles” value ([2]; listed as RR-1) was “only little inhibitory effect”. The IL-8 production [3] was “did not induce IL-8 production”, the IL-8 production [4] was “did not induce IL-8 production” and the IL-8 production [5] was “did not induce IL-8 production”. The “inhibition of nonopsonic binding of FITC-zymosan A bioparticles (fluorescence intensity)” value [6] was “about 65%”, the “% reduction of secreted TNF-α” value ([7]; then glucan 100 μg/ml) was 4.25 ± 3.66% and the “% reduction of secreted TNF-α” value ([7]; then glucan 500 μg/ml) was 1.89 ± 0.50%.
